For one molecule, Inhibition constant results are on record in ChEMBL document CHEMBL1152054, “Synthesis and evaluation of a -lactam-containing dipeptide analog as a protease inhibitor” (Bioorg Med Chem Lett, 1996).

SMILES strings stand for the structures.

Test [1] is described as follows: Compound was tested for inhibition of carboxypeptidase Y serine protease to produce one-half maximal enzyme activity.
The nature of test [2]: Compound was tested for inhibition of elastase serine protease to produce one-half maximal enzyme activity.
In test [3] the target is Chymotrypsinogen B (Homo sapiens, UniProt P17538). Description: Compound was tested for inhibition of alpha-chymotrypsin serine protease to produce one-half maximal enzyme activity.
Chain of Chymotrypsinogen B (P17538 34-164 limits assumed, other chains not shown): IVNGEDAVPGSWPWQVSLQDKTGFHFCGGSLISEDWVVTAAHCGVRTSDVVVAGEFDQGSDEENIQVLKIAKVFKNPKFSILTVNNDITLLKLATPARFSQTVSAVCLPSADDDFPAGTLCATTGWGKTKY
Chain of Chymotrypsinogen B (P17538 167-263 limits assumed, other chains not shown): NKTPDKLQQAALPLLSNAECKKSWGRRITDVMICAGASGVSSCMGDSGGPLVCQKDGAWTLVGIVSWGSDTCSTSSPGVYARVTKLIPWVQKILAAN
The nature of test [4]: Compound was tested for inhibition of proteinase K serine protease to produce one-half maximal enzyme activity.

As for `COC(=O)CN1CC(Cc2ccccc2)(NC(=O)c2ccccc2)C1=O` (centres undefined), the Inhibition constant is listed as 0.3 mM in test [1], over 1.2 mM in test [2], 0.3 mM in test [3] and over 1.2 mM in test [4].
